Reference: PubChem BioAssay AID449762 (Southern Research Specialized Biocontainment Screening …, 2010)
Inconclusive results are not listed.

tested on: M. tuberculosis H37Rv growth inhibition, 7H9 media; test: M. tuberculosis growth inhibition, HTS (AID 449762); details: not given;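 note: bacterial growth assessed after seven days of incubation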

| SMILES | IC50 [µM] |
| --- | --- |
| C=CCC1(CC=C)CCCN1C(=O)c1cc(COc2ccc(-n3cncn3)cc2)on1 | 41.8 |
| OCC1(Cc2cccc(Cl)c2)CCCN(Cc2ccc3cc(F)ccc3n2)C1 (stereo not drawn) | 45.8 |
| N=c1oc2cc(O)ccc2cc1C(=O)Nc1ccc(Br)cc1 | 0.86 |
| Oc1ccc2ccccc2c1C1Nc2cccc3cccc(c23)N1 | 75 |
| CCCCCCCCn1sccc1=O | 1.29 |
| Cc1ccc(-n2nc3c(N4CCC(C(=O)NCc5ccccc5C)CC4)nnc(C)c3c2C)cc1 | 46.9 |
| CC(C)(C)c1ccc(OCCC(=O)OCC(=O)NC(=O)NC2CCCC2)cc1 | 5.45 |
| O=C1C(=O)N(c2ccccc2)c2ccccc21 | 8.23 |
| C#C[C@]1(O)CC[C@H]2[C@@H]3CCc4cc(OC5CCCC5)ccc4[C@H]3CC[C@@]21C | 35.5 |
| C(C#CCCCCCCCCC[n+]1ccccc1)#CCCCCCCCCC[n+]1ccccc1 | 2.8 |
| C[Se]C[C@@H](N)C(=O)O | 51 |
| Cc1nc(-c2ccc(Cl)cc2)sc1C1(C)CC(c2ccc(C#N)cc2)=NO1 (stereo not drawn) | 51.4 |
| O=c1c(O)c(-c2cccs2)oc2ccccc12 | 12 |
| Cc1cc(N/N=C/c2ccccc2[N+](=O)[O-])nc(-n2nc(C)cc2C)n1 | 0.92 |
| CC(C)C[C@H](NC(=O)c1nc[nH]c1C(=O)NC1CCN(C(=O)OC(C)(C)C)CC1)C(=O)OCc1ccccc1 | 22.4 |
| NNc1nc2ccc(Cl)cc2s1 | 42.5 |
| O=C1N=C(N2CCC(Cc3ccccc3)CC2)S/C1=C/c1cn[nH]c1-c1ccccc1 | 27.5 |
| CC(C)(C)c1ccc(C(=O)NC(=S)NNC(=O)COc2ccccc2)cc1 | 3.39 |
| O=c1oc2ccccc2c2c1nc(C(F)(F)F)n2-c1ccccc1 | 4.39 |
| C#CCCc1cscc1/C=[N+](\[O-])c1ccc(C(=O)OCC)cc1 | 99.1 |
| CCOc1ccc(N2CCc3c(C)nc(SC)nc32)cc1 | < 0.2 |
| Cc1onc(-c2ccccc2Cl)c1C(=O)Oc1cccc2cccnc12 | 2.84 |

| SMILES | IC50 [µM] |
| --- | --- |
| O=C(NC1CCCCC1)C(c1cccs1)N(CCCN1CCOCC1)C(=O)c1ccc(-c2ccccc2)[nH]1 (stereo not drawn) | 40.2 |
| C1=C(c2c[nH]c3ccccc23)CCNC1 | 32.4 |
| Cc1ccc(-c2csc3nc4c5ccccc5c(NCCCN5CCOCC5)nn4c(=O)c23)cc1 | 24.7 |
| CSc1cccc(NC(=O)CCS(=O)(=O)c2cccc3nonc23)c1 | 1.72 |
| CC(C)(Oc1ccc(Cl)cc1)C(=O)OCC(=O)N1CCN(c2ccccc2)CC1 | 30.5 |
| COc1cc2c(C(=O)N3CCN(c4cccc(Cl)c4)CC3)cn(CC(C)C)c(=O)c2cc1OC | 47.7 |
| CCOC(=O)CSc1nc(N)c(C(=O)Nc2ccc(N(C)C)cc2)s1 | 1.05 |
| Cc1cc(C(=O)N/N=C\C(Br)=C\c2ccccc2)c(C)o1 | 38.5 |
| Cc1ccc(OCc2cc(C(=O)N(C)Cc3cnc4ccccn34)no2)cc1C | 19.6 |
| Cc1[nH]c2ccccc2c1C(=O)COC(=O)c1ccc([N+](=O)[O-])s1 | 0.59 |
| CC1(C)Cc2c(C#N)c(N3CCN(C(=O)c4ccccc4)CC3)nc(Cc3ccccc3)c2CO1 | 28.8 |
| CCc1cc2c(=O)n(C(C)C(=O)OC3CCCCC3)cnc2s1 (stereo not drawn) | 17.8 |
| CCc1ccc(NCc2ccc(OC)c(Cn3ccnc3)c2)cc1 | 21.5 |
| Cc1cc2c(N=O)c(NO)ccc2[nH]1 | 10.3 |
| CNc1nc(-c2ccccn2)nnc1-c1ccccc1 | 12.1 |
| c1ccc(-c2n[nH]c(-c3ccccn3)n2)cc1 | 12.6 |
| CCOc1ccc(CN(C)CC(O)COC(c2ccc(OC)cc2)c2ccc(OC)cc2)cc1 (stereo not drawn) | 10.5 |
| CCOC(=O)CSC1=C(C#N)C(c2ccc(C)cc2)C2=C(CCCC2=O)N1 (stereo not drawn) | 43.9 |
| C/C(=N\Nc1ccc(S(=O)(=O)N2CCCCC2)cn1)c1cccc(Br)c1 | 32.7 |
| CCCCCNc1nc(N2CCCC2)c2c(c1C#N)CCN(C)C2 | 83.7 |
| CCOC(=O)c1nn(-c2ccc(C)cc2)c2nc(Nc3ccccc3)cc(=O)n12 | 4.1 |
| Nc1nc(Cl)cc(N2CCC(c3cc(-c4ccc(Cl)cc4Cl)n[nH]3)CC2)n1 | 22.9 |

| SMILES | IC50 [µM] |
| --- | --- |
| CC(NC(=O)CCl)c1ccc(Cl)c(Cl)c1 (stereo not drawn) | 1.17 |
| COC(=O)c1ccc(NC(=S)NC(=O)C2CCC2)cc1 | 41.9 |
| Cc1cc(C)c(C(N)=O)c(SCC(=O)c2ccc(Cl)cc2)n1 | 35.3 |
| CCOC(=O)CCCc1ccc(/C(C)=N/NC(N)=S)cc1 | 6.5 |
| COc1ccc(C2=NC(=O)/C(=C\c3cc(OC)c(OC)c(OC)c3)O2)cc1 | 5.71 |
| CCOC(=O)c1nn(-c2ccc(C)c(C)c2)cc1O | 27.1 |
| COc1ccccc1N(C)S(=O)(=O)c1ccc(C(=O)Nc2ccc3nc(C)sc3c2)cc1 | 58.2 |
| O=C(Nc1nnc(C2=COCCO2)o1)c1ccc(Cc2ccccc2)cc1 | 3.26 |
| Cc1nnc(-c2ccccc2)c(=O)n1/N=C/c1c(O)ccc2ccccc12 | 24.1 |
| COc1cccc(CC2(CO)CCCN(Cc3[nH]c4ccc(C)cc4c3C)C2)c1 (stereo not drawn) | 44 |
| CCOc1ccc(N(C(=O)/C=C/C(=O)Nc2cc(C)on2)C(C(=O)NC2CCCC2)c2ccccc2C)cc1 (stereo not drawn) | 65.9 |
| CCCOC(=O)CSc1nc(N2CCOCC2)c2c(c1C#N)CC(C)(C)OC2 | 21.8 |
| CN(C(=O)COC(=O)c1ccc([N+](=O)[O-])cc1Cl)C1CCCCC1 | 12.8 |
| CN(C)C(=O)C1C2NC(=S)N(c3ccc(Cl)cc3)C1(C)Oc1ccc(Cl)cc12 (stereo not drawn) | 23.6 |
| CCOC(=O)c1c(C)[nH]c(N=Nc2ccc(OC)cc2)c1C | 1.71 |
| O=C(Nc1nc2ccc(SC(F)F)cc2s1)c1ccc(NS(=O)(=O)c2ccc(F)c(F)c2)cc1 | 16.5 |
| CCOc1ccc(-n2cc(-c3ccccc3)c3c(=O)[nH]cnc32)cc1 | 8.41 |
| CCOC(=O)c1ccc(NC(=O)CCc2nc(-c3ccc(Cl)cc3)no2)cc1 | 27.4 |
| CC1Cc2cc(-c3csc(NC(=O)Cc4cccs4)n3)ccc2N1S(C)(=O)=O (stereo not drawn) | 10.6 |
| N=C1C(c2nc3ccccc3[nH]2)=C(O)CN1NC(=O)c1c[nH]c2ccccc12 | 13.5 |
| CCOC(=O)CSc1nn(-c2ccccc2)c(=S)s1 | 4.75 |
| Cc1cccc(CNc2ncnc3ccc(-c4ccc5c(c4)OCCO5)cc23)c1 | 5.93 |

| SMILES | IC50 [µM] |
| --- | --- |
| CC(C)(C)C(=O)/C(=C\c1cccc([N+](=O)[O-])c1)n1cncn1 | 1.51 |
| COc1ccc(Nc2nc(N)c([N+](=O)[O-])c(NC3CCCCC3)n2)cc1 | 9.76 |
| CCOC(=O)C1=NOC(CNc2ncc(C(F)(F)F)cc2Cl)C1 (stereo not drawn) | 7.03 |
| CCOC(=O)c1cnc2ccc(OCC)cc2c1N1CCN(c2ccccc2)CC1 | 27.1 |
| Cc1ccc(-n2c(Cl)c(Cl)nc(Cl)c2=O)cc1 | 5.97 |
| N#CCCN(C(=O)COC(=O)CCc1c[nH]c2ccccc12)c1ccc(F)cc1 | 30.7 |
| Cc1cc(NC2CCCCC2)nc(-c2ccccc2O)n1 | 39.2 |
| Clc1ccc(-c2[nH]ncc2N=Nc2ccccc2)cc1 | 31.7 |
| CCOC(=O)c1ccc(N=c2sc(C(=O)OC)cc(=O)n2CCCN2CCOCC2)cc1 | 4.52 |
| CCCCOc1ccc(-c2nnn(C(C)C(=O)OCC)n2)cc1 (stereo not drawn) | 0.75 |
| CCOc1ncccc1C(=O)OCC(=O)N1CCc2ccccc21 | 6.15 |
| COc1cc2cc(C(c3nnnn3C(C)(C)C)N3CCc4ccccc43)c(=O)[nH]c2cc1OC (stereo not drawn) | 97.4 |
| O=C(Nc1ccccc1)C1=C[C@@H](C2CCCCC2)C[C@@H](OCc2ccc(CO)cc2)O1 | 45 |
| CCOC(=O)c1c(NC(=O)C(NCCN(C)C)c2ccccc2)sc2c1CCCC2 (stereo not drawn) | 4.75 |
| Cc1c(C(=O)N(C)C)sc2nc(-c3ccccn3)[nH]c(=O)c12 | 5.89 |
| O=C(OCC(=O)c1c[nH]c2ccccc12)c1cc(Br)ccc1O | 9.23 |
| CC(C)(C)c1cc(-c2nc(N)nc(N)n2)c(O)c(C(C)(C)C)c1 | 75.9 |
| CCCc1cc(-c2nc(N)ncc2-c2ccc3c(c2)OCCCO3)c(O)cc1OC | 48.6 |
| Cc1nc(NC(=O)c2ccccc2)sc1C1(C)CC(c2ccc(OC(F)(F)F)cc2)=NO1 (stereo not drawn) | 24.6 |
| CC1=NOC(=O)/C1=C/c1ccc(-c2ccc(Cl)cc2)o1 | 5.22 |
| CCOC(=O)C(C)Oc1ccc(NC(=O)C(Cl)(Cl)Cl)cc1 (stereo not drawn) | 2.38 |

same assay, conditions: measured here: IC90 growth inhibition

| SMILES | IC90 [µM] |
| --- | --- |
| C=CCC1(CC=C)CCCN1C(=O)c1cc(COc2ccc(-n3cncn3)cc2)on1 | > 100 |
